Measured values reported in patent US20100098671A1, “COMPOSITION FOR PREVENTION OR TREATMENT OF BONE MARROW DAMAGE” (MODERN CELL & TISSUE TECHNOLOGIES INC., priority 2007, published 2010).
No end group written: not given here.

Experiments:
Assay type in all cases: in vivo, C57b1/6 mice
blood cells = assay: Viable blood cell count in gamma-irradiated mice; conditions: Substance-P administered before or after radiation-induced bone marrow damage
Source text: (§1) In order to ascertain protective and regenerative effects of Substance-P on bone marrow, 8-week-old C57b1/6 mice were purchased as experimental animals and divided into three groups, each consisting of 6 animals (n=6): two experimental groups (administration of a test drug before and after induction of bone marrow damage) and a control group. For this purpose, bone marrow damage was induced by radiation in animals.
(§2) For the group used to confirm bone marrow-protective effects of Substance-P, 0.1 nmol/g of Substance-P was injected into caudal vein of mice, 1 day prior to radiation. 24 hours later, animals were irradiated with a gamma irradiator at a dose of 4 Gy. 4 hours after irradiation, 0.1 nmol/g of Substance-P diluted in PBS was injected once more into caudal vein of mice. Substance-P was diluted in PBS prior to use thereof.
(§3) For the group used to confirm bone marrow-regenerative effects of Substance-P, 0.1 nmol/g of Substance-P was intravenously administered to caudal veins of mice immediately after animals were irradiated with gamma rays. 24 hours later, Substance-P was intravenously administered once more to animals.
Blood cells were isolated from animals 3 and 7 days after irradiation treatment was complete. For this purpose, whole blood (WB) was isolated from abdominal vena cava using a 26-gauge syringe. […]

[1] = system: hematopoietic stem cell colony formation of bone marrow cells; assay: CFU assay of bone marrow cells from irradiated mice in HSC-CFU media
Source text: as §1, §2, §3
(§4) Bone marrow cells were isolated from animals 3 and 7 days after irradiation. For this purpose, femurs were isolated from mice and defatted to obtain the femoral bones only. A medium was allowed to flow from one end of the bone to the other end thereof using a 26-gauge syringe. This procedure was repeated five times to ensure that bone marrow cells were completely extracted from the bone. The cells were pooled in a tube, and centrifuged at 1500 rpm for 5 min and washed two times with PBS. The viable cell count was performed and compared between the drug-administered groups (administration of Substance-P before and after irradiation) and the non-administered group.
When bone marrow cells and blood cells were prepared, the cells were inoculated onto 35 mm plates at a density of 3×10^3 bone marrow cells/plate and 5×10^6 blood cells/plate, respectively and cultured in hematopoietic stem cell-colony forming unit media (HSC-CFU media, available from Miltenyi). The cells were cultured without change of the culture medium for two weeks while a colony count was performed daily.

bone marrow cells = assay: Viable bone marrow cell count in gamma-irradiated mice
Source text: as §1, §2, §3, §4

Substance: Substance P (RPKPQQFFGLM; not fully specified; ends and bridges not checked; UniProt P20366 58-68, looked up) [Substance-P]
- number of blood cells vs non-administered group (blood cells): significantly higher
- day from which colony formation was observable ([1]; Substance-P after irradiation): 5 post-irradiation day
- colony count vs non-administered group ([1]; Substance-P after irradiation, 2-week culture, 14th post-irradiation day): about 3 fold
- colony formation ([1]; Substance-P after irradiation, 3rd post-irradiation day): no colony formation
- colony count ([1]; Substance-P after irradiation, 7th post-irradiation day): significantly increased
- colony count vs non-administered group ([1]; Substance-P prior to irradiation, 2-week culture, 14th post-irradiation day): about 9 fold
- colony count vs non-administered group ([1]; Substance-P prior to irradiation, 3rd post-irradiation day): higher colony counts
- colony count vs non-administered group ([1]; Substance-P prior to irradiation, 7th post-irradiation day): higher colony counts
- colony count vs non-administered group ([1]; Substance-P prior to irradiation, immediately after irradiation): higher colony counts
- viable bone marrow cell count vs non-administered group (bone marrow cells; Substance-P 0.1 nmol/g i.v. 1 day prior to and 4 h after 4 Gy irradiation, 3rd post-irradiation day): no significant difference
- viable bone marrow cell count vs non-administered group (bone marrow cells; Substance-P 0.1 nmol/g i.v. 1 day prior to and 4 h after 4 Gy irradiation, after 7 days): about two-fold higher
- viable bone marrow cell count vs non-administered group (bone marrow cells; Substance-P 0.1 nmol/g i.v. immediately after irradiation and 24 h later, 3rd post-irradiation day): no significant difference
- viable bone marrow cell count vs non-administered group (bone marrow cells; Substance-P 0.1 nmol/g i.v. immediately after irradiation and 24 h later, after 7 days): about 2.5 fold
